We go through three compounds from patent US20100204324A1, “Optically Active N-(Alpha-Mercaptopropionyl)Glycine” (priority 2007, published 2010).

Common to all, as to assay type: in vivo
Data set [1] relates to mice with liver injury induced by acetamidophenol. The data set is described as follows: Liver injury in mice induced by acetamidophenol, drugs by intravenous injection: serum biochemical indicators and liver indexes. The following applies: for Liver albumin / Liver total protein / GSH: 10% liver homogenate; for Liver albumin / Liver total protein / Liver coefficient / Serum total protein / mice dead after modeling / GSH / MDA: mice, drug 800 mg/kg iv; for Liver coefficient / Serum total protein: acetamidophenol 400 mg/kg ip, 24 hours after modeling; for mice dead after modeling: acetamidophenol model; for GSH / MDA: liver. As for the experimental part: The animals were randomly divided into the following 5 groups of 10 animals according to weight: solvent control group, model group (acetamidophenol, 400 mg/kg, ml/kg, intraperitoneal injection), tiopronin group (MPG), R-(−)-N-(α-mercaptopropionyl)glycine group, and S-(+)-N-(α-mercaptopropionyl)glycine group. After fasting for 12 h, except the solvent control group and model group were given saline by intravenous injection, the other test groups were intravenously injected drugs, and then intraperitoneally injected 400/mg/kg of acetamidophenol immediately, to induce acute liver cell injury. The animals were fed with food at 6 hours after modeling, and then fasted for 16 hours; and at 24 hours after modeling, blood were sampled by eye ball removal, centrifuged, and collected for serum. ALT, and AST were determined following the method of the kit. 10% of liver homogenate was prepared, to measure GSH. The liver and spleen were taken at the same time, weighted, and calculated for organcoefficient.

Data set [2] can be described thus: Pharmacokinetic test in the body of a test animal, plasma drug concentration by HPLC-MS (interconversion of enantiomers). To be noted: each time point after administration, GITC derivatization. An excerpt: It is found from pharmacokinetic experiment that, conversion of R-(−)-N-(α-mercaptopropionyl)glycine and S-(+)-N-(α-mercaptopropionyl)glycine to each other have not occurred in body. The specific experiment is a pharmacokinetic test in the body of a test animal, including determining the plasma drug concentration with high-performance liquid chromatography-mass spectrometry (HPLC-MS).
The process for treat a plasma sample to formulate an injected solution includes plasma acidification, extraction, and then derivatization, and is as follows: […]
ionization mode: electrospray ionization; selective ion detection; curved desolvation line (CDL); temperature: 200° C.-300° C., with 250° C. being preferred; heating block temperature: 150° C.-250° C., with 200° C. being preferred; CDL voltage: 20V-30V, with 25V being preferred; detection voltage: +1.2 kV-+1.8 kV, with +1.50 kV being preferred; flow rate of atomizing gas: 1.2 L/min-1.8 L/min, with 1.5 L/min being preferred; flow rate of drying gas: 1.5 L/min-2.5 L/min, with 2.0 L/min being preferred; detected ion: derivative of test drug [M+Na]+(m/z): 575.20; internal standard: derivative of N-isobutanoyl-D-cysteine (NIDC) [M+Na]+(m/z): 603.05; […]

In data set [3] the test system is rats with liver injury induced by CCl4. The data set is described as follows: Protection against liver injury in rats induced by carbon tetrachloride, drugs given intragastrically. To be noted: CCl4 model, drug 450 mg/kg ig; for Albumin / Globulin / Total protein: serum; for A/G: serum albumin/globulin. As for the experimental part:
The animals were randomly divided into the following 5 groups of 10 animals according to weight: solvent control group, model group (50% CCl4, 2 ml/kg, intraperitoneal injection), tiopronin group (MPG), R-(−)-N-(α-mercaptopropionyl)glycine group, and S-(+)-N-(α-mercaptopropionyl)glycine group. Except the solvent control group was given olive oil by intraperitoneal injection, the other test groups were intragastrically administrated drugs for 4 days, once daily, intraperitoneally injected CCl4 once on the fifth day to induce acute liver cell injury, treated with drugs 30 min before modeling (except for the model control group), and then administrated drugs once 2 hours after modeling. Then, the animals were fasted for 16 h, blood was sampled from retrobulbar venous plexus 24 hours after injecting CCl4, centrifuged, and collected for serum, and ALT, AST, albumin were determined following the method of the kit. The left lobe of liver was taken to prepare 10% of liver homogenate and measure GSH and MDA contents.

Setting [4] is: listed as S—H—N-(α-mercaptopropionyl)glycine.

In data set [1], `C[C@@H](S)C(=O)NCC(=O)O` [R-(−)-N-(α-mercaptopropionyl)glycine] displayed a Liver albumin of 9.2 ± 1.3 mg/mL, a Liver total protein of 16.5 ± 1.7 mg/mL, a Liver coefficient of 5.816 ± 0.613 mg/g and a Serum total protein of 43.8 ± 7.4 mg/mL. For the same compound, in data set [1], the “mice dead after modeling” value is on record as “no death”. In addition, the “protection against liver injury in mice induced by acetamidophenol” value in data set [1] (overall comparison with tiopronin group, 800 mg/kg iv) is on record as “superior to that in tiopronin group”. In addition, the “presence of the other enantiomer in plasma spectrogram after individual administration (conversion in body)” value in data set [2] was “not obviously detected”.
With `CC(S)C(=O)NCC(=O)O` (stereo not drawn) [S-(+)-N-(α-mercaptopropionyl)glycine], in data set [1], the Liver albumin was 9.1 ± 2.0 mg/mL, the Liver total protein is 16.2 ± 2.9 mg/mL, the MDA was 440.0 ± 134.6 nmol/g wet weight and the Liver coefficient was 6.201 ± 0.567 mg/g. The Serum total protein in data set [1] turned out to be 43.7 ± 5.7 mg/mL. Also, in data set [1] (setting [4]), the GSH result is “no such effects” and the MDA entry is recorded as “no such effects”. Moreover, in data set [3], the Albumin is 27.5 ± 1.44 mg/mL, the Globulin was 37.2 ± 5.06 mg/mL and the Total protein was determined as 64.7 ± 6.40 mg/mL. For the same compound, the “presence of the other enantiomer in plasma spectrogram after individual administration (conversion in body)” value in data set [2] was “not obviously detected”.
In data set [1], `CC(S)C(=O)NCC(=O)O` (stereo not drawn) [Tiopronin, N-(α-mercaptopropionyl)glycine] displayed a Liver albumin of 9.6 ± 1.1 mg/mL, a Liver total protein of 15.7 ± 1.4 mg/mL, an MDA of 362.4 ± 98.6 nmol/g wet weight and a Liver coefficient of 5.804 ± 0.598 mg/g. In addition, the “mice dead after modeling” value in data set [1] was found to be 4. Besides, in data set [1] (listed as tiopronin), the GSH result is given as “no such effects” and the MDA entry was “no such effects”. For the same compound, in data set [3], the A/G stood at 0.825 ± 0.101, the Albumin is 26.8 ± 1.98 mg/mL, the Globulin was determined as 32.9 ± 4.79 mg/mL and the Total protein is 59.8 ± 6.26 mg/mL. For the same compound, in data set [3] (listed as tiopronin), the A/G entry is “no obvious effect”, the Albumin entry is given as “no obvious effect”, the Globulin entry is on record as “no obvious effect” and the Total protein result was “no obvious effect”.
